From patent US6472348B1, “Pyridone derivatives and herbicides” (Kumiai Chemical Industry Co., Ltd., priority 1996, dated 2002)

test system: Digitaria ciliaris (Di); assay: Test Example 2: herbicidal effects by upland field soil treatment; type: in vivo; details: 100 g of the active ingredient per 10 ares, 21st day after the application, index 0-5 of Table 47;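 note: grade of growth control; 5 = at least 90%; 4 = 70 to 90%; 3 = 50 to 70%; 2 = 30 to 50%; 1 = 10 to 30%; 0 = under 10%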
Text: (§1) (Test on Herbicidal Effects by Upland Field Soil Treatment)

SMILES | Herbicidal effects Di
CCCCCCOC(=O)COc1cc(-c2ccc(C(F)(F)F)n(C)c2=O)c(F)cc1Cl [1-149] | 5

same assay, conditions: 100 g of the active ingredient per 10 ares, evaluated on the 21st day after application

SMILES | Herbicidal effects Di
CCOCOc1cc(-c2ccc(C(F)(F)F)n(C)c2=O)c(Cl)cc1Cl [Compound 1-206] | 5

test system: barnyardgrass (Ec); assay: as above; type: in vivo; details: 100 g of the active ingredient per 10 ares, 21st day after the application, index 0-5 of Table 47
Text: as §1

SMILES | Herbicidal effects Ec
CCCCCCOC(=O)COc1cc(-c2ccc(C(F)(F)F)n(C)c2=O)c(F)cc1Cl [1-149] | 5

same assay, conditions: 100 g of the active ingredient per 10 ares, evaluated on the 21st day after application

SMILES | Herbicidal effects Ec
CCOCOc1cc(-c2ccc(C(F)(F)F)n(C)c2=O)c(Cl)cc1Cl [Compound 1-206] | 5

test system: rice flatsedge (Ci); assay: as above; type: in vivo; details: 100 g of the active ingredient per 10 ares, 21st day after the application, index 0-5 of Table 47
Text: as §1

SMILES | Herbicidal effects Ci
CCCCCCOC(=O)COc1cc(-c2ccc(C(F)(F)F)n(C)c2=O)c(F)cc1Cl [1-149] | 5

same assay, conditions: 100 g of the active ingredient per 10 ares, evaluated on the 21st day after application

SMILES | Herbicidal effects Ci
CCOCOc1cc(-c2ccc(C(F)(F)F)n(C)c2=O)c(Cl)cc1Cl [Compound 1-206] | 5

test system: pale smartweed (Po); assay: as above; type: in vivo; details: 100 g of the active ingredient per 10 ares, 21st day after the application, index 0-5 of Table 47
Text: as §1

SMILES | Herbicidal effects Po
CCCCCCOC(=O)COc1cc(-c2ccc(C(F)(F)F)n(C)c2=O)c(F)cc1Cl [1-149] | 5

same assay, conditions: 100 g of the active ingredient per 10 ares, evaluated on the 21st day after application

SMILES | Herbicidal effects Po
CCOCOc1cc(-c2ccc(C(F)(F)F)n(C)c2=O)c(Cl)cc1Cl [Compound 1-206] | 5

test system: common lambsquarters (Ch); assay: as above; type: in vivo; details: 100 g of the active ingredient per 10 ares, 21st day after the application, index 0-5 of Table 47
Text: as §1

SMILES | Herbicidal effects Ch
CCCCCCOC(=O)COc1cc(-c2ccc(C(F)(F)F)n(C)c2=O)c(F)cc1Cl [1-149] | 5

same assay, conditions: 100 g of the active ingredient per 10 ares, evaluated on the 21st day after application

SMILES | Herbicidal effects Ch
CCOCOc1cc(-c2ccc(C(F)(F)F)n(C)c2=O)c(Cl)cc1Cl [Compound 1-206] | 5

test system: slender amaranth (Am); assay: as above; type: in vivo; details: 100 g of the active ingredient per 10 ares, 21st day after the application, index 0-5 of Table 47
Text: as §1

SMILES | Herbicidal effects Am
CCCCCCOC(=O)COc1cc(-c2ccc(C(F)(F)F)n(C)c2=O)c(F)cc1Cl [1-149] | 5

same assay, conditions: 100 g of the active ingredient per 10 ares, evaluated on the 21st day after application

SMILES | Herbicidal effects Am
CCOCOc1cc(-c2ccc(C(F)(F)F)n(C)c2=O)c(Cl)cc1Cl [Compound 1-206] | 5

test system: barnyardgrass (Ec); assay: Test Example 1: herbicidal effects by paddy field soil treatment; type: in vivo; details: 100 g of the active ingredient per 10 ares, 21st day after the application, index 0-5 of Table 47;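 note: grade of growth control; 5 = at least 90%; 4 = 70 to 90%; 3 = 50 to 70%; 2 = 30 to 50%; 1 = 10 to 30%; 0 = under 10%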
Summary of the method: (§2)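 Scoring of herbicidal effect came 21 days after application of 100 g active ingredient per 10 ares to flooded (3 cm) paddy-soil pots sown with barnyardgrass, monochoria and bulrush, kept in a greenhouse.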

SMILES | Herbicidal effects Ec
CCOCOc1cc(-c2ccc(C(F)(F)F)n(C)c2=O)c(Cl)cc1Cl [Compound 1-206] | 5
CCCCCCOC(=O)COc1cc(-c2ccc(C(F)(F)F)n(C)c2=O)c(F)cc1Cl [1-149] | 5

test system: monochoria (Mo); assay: as above; type: in vivo; details: 100 g of the active ingredient per 10 ares, 21st day after the application, index 0-5 of Table 47;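 note: grade of growth control; 5 = at least 90%; 4 = 70 to 90%; 3 = 50 to 70%; 2 = 30 to 50%; 1 = 10 to 30%; 0 = under 10%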
Summary of the method: as §2

SMILES | Herbicidal effects Mo
CCOCOc1cc(-c2ccc(C(F)(F)F)n(C)c2=O)c(Cl)cc1Cl [Compound 1-206] | 5
CCCCCCOC(=O)COc1cc(-c2ccc(C(F)(F)F)n(C)c2=O)c(F)cc1Cl [1-149] | 5

test system: bulrush (Sc); assay: as above; type: in vivo; details: 100 g of the active ingredient per 10 ares, 21st day after the application, index 0-5 of Table 47;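 note: grade of growth control; 5 = at least 90%; 4 = 70 to 90%; 3 = 50 to 70%; 2 = 30 to 50%; 1 = 10 to 30%; 0 = under 10%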
Summary of the method: as §2

SMILES | Herbicidal effects Sc
CCOCOc1cc(-c2ccc(C(F)(F)F)n(C)c2=O)c(Cl)cc1Cl [Compound 1-206] | 5
CCCCCCOC(=O)COc1cc(-c2ccc(C(F)(F)F)n(C)c2=O)c(F)cc1Cl [1-149] | 5

test system: barnyardgrass (Ec); assay: Test Example 3: herbicidal effects by upland field foliage treatment; type: in vivo; parameters: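 grade of growth control; 5 = at least 90%; 4 = 70 to 90%; 3 = 50 to 70%; 2 = 30 to 50%; 1 = 10 to 30%; 0 = under 10%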; details: 100 g active ingredient per 10 ares, evaluated 14th day after treatment
Summary of the method: (§3)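 Weeds were sown in sand-filled pots (surface area: 120 cm^2), covered with soil and grown in a greenhouse for 2 weeks before foliar treatment. Plants then stayed in the greenhouse, and herbicidal effect was scored against graded standards on the 14th day after treatment.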

SMILES | Herbicidal effects Ec
CCOCOc1cc(-c2ccc(C(F)(F)F)n(C)c2=O)c(Cl)cc1Cl [Compound 1-206] | 5

same assay, conditions: 100 g of the active ingredient per 10 ares, evaluated on the 14th day after treatment

SMILES | Herbicidal effects Ec
CCCCCCOC(=O)COc1cc(-c2ccc(C(F)(F)F)n(C)c2=O)c(F)cc1Cl [1-149] | 5

test system: rice flatsedge (Ci); assay: as above; type: in vivo; parameters: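 grade of growth control; 5 = at least 90%; 4 = 70 to 90%; 3 = 50 to 70%; 2 = 30 to 50%; 1 = 10 to 30%; 0 = under 10%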; details: 100 g active ingredient per 10 ares, evaluated 14th day after treatment
Summary of the method: as §3

SMILES | Herbicidal effects Ci
CCOCOc1cc(-c2ccc(C(F)(F)F)n(C)c2=O)c(Cl)cc1Cl [Compound 1-206] | 5

same assay, conditions: 100 g of the active ingredient per 10 ares, evaluated on the 14th day after treatment

SMILES | Herbicidal effects Ci
CCCCCCOC(=O)COc1cc(-c2ccc(C(F)(F)F)n(C)c2=O)c(F)cc1Cl [1-149] | 5

test system: pale smartweed (Po); assay: as above; type: in vivo; parameters: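 grade of growth control; 5 = at least 90%; 4 = 70 to 90%; 3 = 50 to 70%; 2 = 30 to 50%; 1 = 10 to 30%; 0 = under 10%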; details: 100 g active ingredient per 10 ares, evaluated 14th day after treatment
Summary of the method: as §3

SMILES | Herbicidal effects Po
CCOCOc1cc(-c2ccc(C(F)(F)F)n(C)c2=O)c(Cl)cc1Cl [Compound 1-206] | 5

same assay, conditions: 100 g of the active ingredient per 10 ares, evaluated on the 14th day after treatment

SMILES | Herbicidal effects Po
CCCCCCOC(=O)COc1cc(-c2ccc(C(F)(F)F)n(C)c2=O)c(F)cc1Cl [1-149] | 5

test system: common lambsquarters (Ch); assay: as above; type: in vivo; parameters: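 grade of growth control; 5 = at least 90%; 4 = 70 to 90%; 3 = 50 to 70%; 2 = 30 to 50%; 1 = 10 to 30%; 0 = under 10%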; details: 100 g active ingredient per 10 ares, evaluated 14th day after treatment
Summary of the method: as §3

SMILES | Herbicidal effects Ch
CCOCOc1cc(-c2ccc(C(F)(F)F)n(C)c2=O)c(Cl)cc1Cl [Compound 1-206] | 5

same assay, conditions: 100 g of the active ingredient per 10 ares, evaluated on the 14th day after treatment

SMILES | Herbicidal effects Ch
CCCCCCOC(=O)COc1cc(-c2ccc(C(F)(F)F)n(C)c2=O)c(F)cc1Cl [1-149] | 5

test system: Diaitaria ciliaris (Di); assay: as above; type: in vivo; parameters: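 grade of growth control; 5 = at least 90%; 4 = 70 to 90%; 3 = 50 to 70%; 2 = 30 to 50%; 1 = 10 to 30%; 0 = under 10%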; details: 100 g active ingredient per 10 ares, evaluated 14th day after treatment
Summary of the method: as §3

SMILES | Herbicidal effects Di
CCOCOc1cc(-c2ccc(C(F)(F)F)n(C)c2=O)c(Cl)cc1Cl [Compound 1-206] | 5

same assay, conditions: 100 g of the active ingredient per 10 ares, evaluated on the 14th day after treatment

SMILES | Herbicidal effects Di
CCCCCCOC(=O)COc1cc(-c2ccc(C(F)(F)F)n(C)c2=O)c(F)cc1Cl [1-149] | 5

test system: slender amaranth (Am); assay: as above; type: in vivo; parameters: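 grade of growth control; 5 = at least 90%; 4 = 70 to 90%; 3 = 50 to 70%; 2 = 30 to 50%; 1 = 10 to 30%; 0 = under 10%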; details: 100 g active ingredient per 10 ares, evaluated 14th day after treatment
Summary of the method: as §3

SMILES | Herbicidal effects Am
CCOCOc1cc(-c2ccc(C(F)(F)F)n(C)c2=O)c(Cl)cc1Cl [Compound 1-206] | 5

same assay, conditions: 100 g of the active ingredient per 10 ares, evaluated on the 14th day after treatment

SMILES | Herbicidal effects Am
CCCCCCOC(=O)COc1cc(-c2ccc(C(F)(F)F)n(C)c2=O)c(F)cc1Cl [1-149] | 5
